# Experimental data reported in US20130252886A1, “METHODS OF DELAYING AND TREATING DIABETES” (priority 2010, published 2013).
# “Also recorded” adds a separate entry of the source.
# Legend:
# Assay type in all cases: in vivo
# [1] = test system: Female NOD mice (NOD/ShiLtJ, Taconic); assay: Insulin requirement and blood glucose in diabetic NOD mice, GABA vs lysine controls (Example 6)
# Protocol: Female NOD mice (NOD/ShiLtJ, Taconic) were housed in accordance with NIH Animal Use and Welfare guidelines with 12 hour light-dark cycle beginning at 9 weeks of age. The animals were fed a standard rodent diet ad lib. Blood glucose was measured weekly using a Freestyle glucometer, and then twice daily once it was determined they had diabetes.
# Mice were considered diabetic if a single non-fasting blood glucose measurement was […]. For about eight weeks before the mice became diabetic, their average fasting blood glucose was 102 mg/dl. Once diabetic, blood glucose levels were measured twice daily, approximately eight hours apart. All of the mice received insulin subcutaneously twice daily and the dosage was adjusted as needed. Three diabetic mice were randomly designated as controls and were given the amino acid lysine (8 mg/kg) orally (PO) twice a day before the administration of insulin.
# [2] = test system: insulin-dependent dogs; assay: Clinical trial of oral GABA in naturally-occurring insulin-dependent dogs: blood glucose, fructosamine
# Protocol: These companion dogs were housed in homes, mimicking the lifestyle of diabetic humans. Based on published estimates, approximately 50% of these animals had insulitis, while others have had pancreatitis.
# The GABA was diluted in water and the owner administers it orally (PO QD) as a bolus just before feeding. […] Once randomized on day 120, all investigators were blinded as to treatment.
# As previously described in Example 5, supra, the 8 month clinical canine trial in collaboration with Purdue University was completed. Naturally-occurring diabetic dogs were housed in homes and were insulin dependent when they began the study. FIGS. 18 and 19 show the mean 10 hour fasting blood glucose (mg/dl) and mean C-peptide (ng/ml/kg) in these insulin-dependent dogs, respectively.
# FIG. 18 is a graph of the mean blood glucose in the seven dogs measured during a ten hour window. On a measurement day, the dogs were fed and given insulin. Blood glucose was then monitored at ˜8:00 AM and for every two hours until ˜6:00 PM. The mean of these values was taken and plotted in FIG. 18.
# On day 0, the mean 10 hr glucose was 310 mg/dl. From day 0 to day 60, the dogs were treated with insulin only. […] The mean blood glucose over the 10 hour measurement period dropped to 209 mg/dl by the last visit, a 33% overall improvement without a significant change in the average insulin dosage.
# [3] = test system: NOD mouse pancreas; assay: Pancreas histology of NOD mice
# Protocol: NOD mice, as previously described in Examples 1-4, supra, were anesthetized with an intraperitoneal injection of 75 mg/kg pentobarbital (Nembutol). When mice were unresponsive to painful stimuli, the pancreas was surgically removed and placed in 10% neutral buffered formalin. Mice were then euthanized by exsanguination. The paraffin blocks of fixed pancreas were processed by automation and 5 micron sections were prepared from three levels for automated hematoxylin and eosin staining followed by aldehyde fuchsin stain for insulin. The histology slides were prepared and stained at Jackson Laboratory, Bar Harbor, Me.
# [4] = test system: female NOD mice; assay: Diabetes prevention/delayed onset study, fasting blood glucose
# From the text: Normally, ninety to one hundred percent of female NOD mice, available, for example, from Jackson Laboratory, develop diabetes by 30 weeks of age. Two treatments were designed to study delaying the onset of diabetes and diabetes intervention in NOD mice. The first examined therapies in NOD mice beginning at 8 weeks of age to delay the onset of diabetes onset.
# In the diabetes prevention/delayed onset study, mice were divided into five groups. […] Group 3 received 0.4 units insulin subcutaneously just prior to consuming food.
# Female NOD mice (Jackson Laboratory) were allowed to access food ad lib overnight. A 12 hour light-dark cycle was maintained and mice were housed in accordance with the NIH Animal Care and Use guidelines. Food was removed for eight hours during the day and the fasting blood glucose was tested daily at the end of the eight hour fast.
# The control group received vegetable oil to the fur without anything else. […] The insulin only group was given 0.4 units insulin (SQ) just before feeding.
# Diabetes was defined as a fasting blood glucose ≧200 mg/dl on three consecutive days. The average of the fasting blood glucose over the three days was included in the calculation of the average for each group in the prevention data (see Table 1 and FIG. 1).
# [5] = test system: insulin-dependent dogs; assay: Stimulated C-peptide in insulin-dependent dogs (radioimmunoassay); settings: oral GABA 30, 60, 90 mg/kg, seven dogs
# From the text: C-peptide was monitored as a way to determine the amount of endogenous insulin synthesized and secreted in these diabetic dogs. Endogenous insulin is first biosynthesized as linked A, B and C peptides. The C-peptide is removed and circulates in the blood stream. The active insulin molecule is linked A & B peptide only. Since diabetic patients administering insulin injections receive exogenous A & B peptide, the measurement of C-peptide can determine of how much endogenous insulin is produced by the individual's pancreas.
# In this study stimulated C-peptide was measured every two months. On the day of C-peptide measurements, blood was drawn at time 0 and the dog was fed stimulating C-peptide release. No exogenous insulin was given by injection to avoid suppressing endogenous insulin secretion. Blood was drawn again at 60, 90, 120 and 240 minutes. […] C-peptide was plotted as area under the curve measurements. The values for the placebo treatment have been grouped and represent all seven dogs.
# [6] = Pharmacokinetics: plasma GABA concentration in diabetic dogs (LC/MS)
# Protocol: Plasma GABA measurements were made by liquid chromatography/mass spectroscopy. Blood was drawn at 0, 60, 90, 120 and 240 minutes and plotted as area under the curve. These samples were drawn after a meal but in the absence of exogenous insulin administration, as previously described for C-peptide measurements. Blood samples were drawn and divided into serum separation or plasma separation tubes for C-peptide and pharmacokinetics studies respectively.
# This bell shaped response mimics what is seen in dose-response curves with GABA in vitro.
# [7] = test system: diabetic female NOD mice; assay: Diabetes treatment protocol in diabetic NOD mice (GABA before insulin, BID)
# From the text: Once the NOD mice became diabetic, they were shifted from the prevention/delayed onset regimen into the treatment protocol. […] The first dose of GABA was given just after removing the food from the cage and a second dose was given approximately eight hours later, just before feeding. […] Two NOD mice were maintained on insulin when they became diabetic, to serve as controls.
# The first dose of GABA was given just after removing the food from the cage and a second dose was given approximately eight hours later, just before feeding. The insulin dose administered was based on each mouse's blood glucose level.
# Female non-obese diabetic (NOD) mice (Jackson Laboratory) were used to study GABA treatment efficacy. Diabetes normally occurs in 90-100% of these mice by 30 weeks and they develop the insulitis and hypoinsulinemia that characterizes Type 1 diabetes in humans. Mice were housed in accordance with NIH Animal Use and Welfare guidelines with 12 hour light-dark cycle beginning at 8 weeks of age. Animals were fed a standard rodent diet ad lib overnight followed by removal of food from the cage for an 8 hour fast. Before and after the eight hour fast, blood glucose was measured weekly using a Freestyle Glucometer and then daily once mice were determined to be diabetic. Mice were considered diabetic if at the end of the 8 hours fast, on three consecutive days, glucose measurements were ≧200 mg/dl. Onset of diabetes usually began to occur when the mice were 12 weeks of age.
# [8] = Average body weight / lean body mass of NOD mice; settings: 30 mg/kg GABA and/or 0.4 U insulin groups
# From the text: FIGS. 3 and 4 show the average weight for the NOD mice in each group during the course of the experiment. The x-axis (age of mouse in weeks) corresponds to both the delayed onset and treatment regimens, depending on when the diagnosis of diabetes was made.
# [9] = 13 weeks of age, treatment just before feeding (30 mg/kg GABA PO and/or 0.4 U insulin SQ)
# [10] = 19 weeks of age, treatment just before feeding
# [11] = 21 weeks of age, treatment just before feeding
# [12] = 22 weeks of age, treatment just before feeding
# [13] = 24 weeks of age, treatment just before feeding
# [14] = 26 weeks of age, treatment just before feeding
molecule,measurement,setting,value
"NCCCC[C@H](N)C(=O)O [lysine, reference compound]",insulin requirements,"[1]; range over the 9 week study period, GABA 60 or 90 mg/kg or lysine 8 mg/kg PO BID before insulin",0.030-0.047 units/day
"NCCCC(=O)O [GABA, γ-aminobutyric acid]",average reduction in blood glucose levels from day 60 to day 120,[2]; 30 mg/kg GABA PO QD,32%
same,reduction in average blood glucose levels at day 120 compared to the pre-treatment average (day −10 through day 60),[2]; 30 mg/kg GABA PO QD,40%
same,overall improvement of mean 10 hour blood glucose,"[2]; day 0 to last visit, without significant change in average insulin dosage",33%
same,mean blood glucose over the 10 hour measurement period,"[2]; seven dogs, last visit, GABA escalated 30, 60, 90 mg/kg, day 0 value 310 mg/dl",209 mg/dL
same,fasting blood glucose control,"[2]; six dogs, 30 mg/kg GABA PO QD from day 60, with insulin, 30 mg/kg",downward decrease in fasting blood glucose; also recorded: substantially improved
same,mean fructosamine level,"[2]; six dogs, treatment days 60-120 with 30 mg/kg GABA vs pretreatment days 0-59 (p=0.007)",decline of the mean fructosamine level
same,"pancreatic histology, islets and inflammation","[3]; mouse that remained on GABA (and insulin) until sacrifice, FIG. 15",regenerated islets and little to no inflammation
same,pancreatic histology after stopping GABA treatment,"[3]; mouse weaned off insulin, sacrificed at 64 weeks, FIG. 14",causes the inflammation to return to the pancreas
same,Average Fasting Blood Glucose,"[4]; 13 weeks of age, Group 5 fasting GABA, 30 mg/kg 2 hours before feeding",86 mg/dL
same,Average Fasting Blood Glucose,[4]; [9],80 mg/dL
same,Average Fasting Blood Glucose,"[4]; 15 weeks of age, Group 5 fasting GABA, 30 mg/kg 2 hours before feeding",97 mg/dL
same,Average Fasting Blood Glucose,"[4]; 17 weeks of age, Group 5 fasting GABA, 30 mg/kg 2 hours before feeding",100 mg/dL
same,Average Fasting Blood Glucose,"[4]; 19 weeks of age, Group 5 fasting GABA, 30 mg/kg 2 hours before feeding",172 mg/dL
same,Average Fasting Blood Glucose,[4]; [10],127 mg/dL
same,Average Fasting Blood Glucose,"[4]; 21 weeks of age, Group 5 fasting GABA, 30 mg/kg 2 hours before feeding",239 mg/dL
same,Average Fasting Blood Glucose,[4]; [11],138 mg/dL
same,mice alive and diabetes free,"[4]; 22 weeks of age, Group 2, 30 mg/kg GABA PO just before feeding (4/4 mice)",100%
same,mice that became diabetic,"[4]; 22 weeks of age, Group 5, 30 mg/kg GABA under fasting conditions",50%
same,Average Fasting Blood Glucose,"[4]; 22 weeks of age, Group 5 fasting GABA, 30 mg/kg 2 hours before feeding",266 mg/dL
same,Average Fasting Blood Glucose,[4]; [12],173 mg/dL
same,Average Fasting Blood Glucose,"[4]; 24 weeks of age, Group 5 fasting GABA, 30 mg/kg 2 hours before feeding",265 mg/dL
same,Average Fasting Blood Glucose,[4]; [13],152 mg/dL
same,average fasting blood glucose compared with other treatment groups,[4]; [13],significantly lower
same,average fasting blood glucose compared with other groups,"[4]; 24 weeks, Group 5, 30 mg/kg GABA under fasting conditions",significantly higher
same,Average Fasting Blood Glucose,"[4]; 26 weeks of age, Group 5 fasting GABA, 30 mg/kg 2 hours before feeding",226 mg/dL
same,Average Fasting Blood Glucose,[4]; [14],253 mg/dL
same,prevention / delay of diabetes onset,"[4]; Group 2, 30 mg/kg GABA just before feeding",delayed the longest; also recorded: most successful prevention treatment
same,effectiveness of prevention treatment,"[4]; Group 5, 30 mg/kg GABA under fasting conditions, vs GABA just before feeding",less effective
same,C-peptide (area under the curve),[5],dose dependent increase
same,change of plasma GABA levels at visit 14,[6]; dose raised to 90 mg/kg,decreases two fold
same,increase of plasma GABA levels between visit 8 and visit 12,[6]; oral GABA dose doubled (30 to 60 mg/kg),~80 fold
same,insulin dose required over the course of treatment,"[7]; 60 mg/kg GABA BID, insulin dosed to keep fasting blood glucose ≦200 (Ex. 2) or ≦150 mg/dl (Ex. 4)",declined markedly; also recorded: rapidly required less insulin; also recorded: significantly less insulin over time
same,lowering blood glucose levels and insulin requirements after onset of diabetes,[7]; 60 mg/kg GABA PO BID,effective treatment
same,fasting and fed blood glucose in mice that became insulin independent,[7]; 60 mg/kg GABA orally over approximately 11 weeks,completely restored to normal
same,number of insulin dependent diabetic mice that became insulin independent,[7]; 60 mg/kg GABA treatment,four
same,reduction in insulin dose to keep fasting blood glucose ≦150 mg/dl,[7]; all diabetic mice treated with 60 mg/kg GABA,≥ 85%
same,"decrease in average insulin requirement, of the maximum dose","[7]; eight diabetic mice, 60 mg/kg GABA BID",85%
same,insulin required to maintain an average weekly blood glucose of 200 mg/dl,"[7]; single mouse of FIG. 15, at sacrifice",0.0025 units
same,"insulin dose at sacrifice, of the original dose","[7]; single mouse of FIG. 15, diabetic 34 weeks, on insulin and GABA throughout",less than 1%
same,insulin requirement to maintain fasting blood glucose ≦150 mg/dl,[7]; three of the eight mice treated with GABA (FIG. 6),eventually came to zero
same,average weight / lean body mass,"[8]; FIGS. 3 and 4, 30 mg/kg",maintained the lowest weights; also recorded: maintains lean body mass
same,decrease in insulin compared to control mice,"[1]; 60 or 90 mg/kg GABA, over 9 weeks",4 fold
same,mice that became insulin independent,[1]; GABA treated group (4 out of 8),50%
same,blood glucose average in mice not requiring insulin,[1]; on oral GABA alone,below 150 mg/dl
same,mean blood glucose,"[1]; over 9 weeks, 60 or 90 mg/kg GABA with insulin",310 mg/dL
"Insulin: exogenous insulin given subcutaneously, 0.4 units just prior to consuming food [reference compound]",Average Fasting Blood Glucose,[4]; [9],82 mg/dL
same,Average Fasting Blood Glucose,"[4]; 15 weeks of age, treatment just before feeding",114 mg/dL
same,Average Fasting Blood Glucose,"[4]; 17 weeks of age, treatment just before feeding",162 mg/dL
same,Average Fasting Blood Glucose,[4]; [10],134 mg/dL
same,Average Fasting Blood Glucose,[4]; [11],150 mg/dL
same,Average Fasting Blood Glucose,[4]; [12],188 mg/dL
same,Average Fasting Blood Glucose,[4]; [13],195 mg/dL
same,Average Fasting Blood Glucose,[4]; [14],260 mg/dL
same,average weight / lean body mass,[8]; FIGS. 3 and 4,increased body mass throughout the study
